One data set has as its system μ-opioid receptors. The following applies: times more potent than tramadol; cited from earlier work.
The conditions of data set [1]: animal models; times more potent than tramadol; cited from earlier work.
The nature of data set [2]: Physicochemical data of tramadol hydrochloride. How it is done: Therefore, the Ex. 2 solution was evaluated for further studies.

Counter-ions that a name gives are not always drawn.

`CN(C)C[C@@H]1CCCC[C@@]1(O)c1cccc(O)c1` (relative stereo) [ODMT, 3-[cis-2-[(dimethylamino)methyl]-1-hydroxycyclohexyl]-phenol]: the “potency in μ-opioid binding relative to tramadol” value in the data set on μ-opioid receptors was 200 times. Further, in data set [1], the “potency in producing analgesia relative to tramadol” value is “up to 6 times”.
For the compound `COc1cccc(C2(O)CCCCC2CN(C)C)c1` (mixture of isomers) [tramadol hydrochloride, (±) cis-2-[(dimethylamino)methyl]-1-(3-methoxyphenyl)cyclohexan-1-ol, hydrochloride], in data set [2], the “pH of tramadol hydrochloride” value is “about 5.3” and the pKa was 9.8. In addition, the solubility entry in data set [2] (pH of about 4.5) is on record as “freely soluble”.
